What all share (experiment): CellTiter-Glo in vitro cell proliferation assay, Example 8
Format in all cases: cell-based, Human

Assay [1] deals with A2780 cells. The following applies: A2780, Ovarian; read-out: Mean IC50. How it is done: (§1) In this Example, in vitro cell proliferation assays were performed using: (1) Human Myeloma tumor cell lines; (2) Human Lymphoma tumor cell lines; (3) Solid Human tumor cell lines; and (4) Parental, Lenalidomide resistant and Bortezomib resistant Jeko-1 Mantle cell Lymphoma tumor cell lines. The compounds tested were three diharmaline compounds, namely the 518B562 (or simply 562), 560, and 561 compounds. In addition, a monoharmaline product designated as 518F014 was also tested. This monoharmaline product had the following structure:
(§2) Each proliferation assay was carried out as follows. The test cells were plated in growth media using a 384-well microtiter plate at 50 μL volume. The cells were incubated for 24 hours at 37° C. in a humidified incubator. After 24 hours of incubation, the test compounds were added to the test wells in DSMO solvent, at concentrations ranging from 0.0075-100 μM. Control wells received equal volumes of DSMO, without compound. Following drugging, the cells were incubated for 72 hours at 37° C. in a humidified incubator. After this exposure, 100 μL of a 1:1 mixture of sterile water and CellTiter-Glo® reagent (Promega) was added to each well. The plates were then incubated for 60 minutes at room temperature, followed by recording the luminescence value of each well using a luminometer as a measure of cell proliferation.

The subject of assay [2] is A2780CP cells. The following applies: Ovarian, read-out: Mean IC50. How it is done: as §1, §2
For assay [3], the system named is A498 cells. To be noted: A498, RCC; read-out: Mean IC50. How it is done: as §1, §2
Assay [4] deals with AN3CA cells. The following applies: Endometrial, read-out: Mean IC50. The method, then: as §1, §2
The subject of assay [5] is ASPC-1 cells. To be noted: ASPC-1, Pancreatic; read-out: Mean IC50. How it is done:
as §1, §2

In assay [6] the test system is BxPC-3 cells. To be noted: BxPC-3, Pancreatic; read-out: Mean IC50. The method, then: as §1, §2
The test system of assay [7] is DOHH-2 cells. To be noted: DoHH-2, GCB-DLBCL; read-out: Mean IC50. How it is done: as §1, §2
Assay [8] has as its system FaDu cells. The following applies: H&N - SC, read-out: Mean IC50. How it is done:
as §1, §2

Assay [9] concerns H1650 (EGFR mut) cells. The following applies: NSCLC, read-out: Mean IC50. How it is done: as §1, §2
In assay [10] the test system is H1975 (EGFR mut) cells. The following applies: NSCLC, read-out: Mean IC50. How it is done:
as §1, §2

In assay [11] the test system is HCC70 cells. To be noted: HCC70, TNBC; read-out: Mean IC50. How it is done: as §1, §2
Assay [12] concerns HEC-1a cells. To be noted: Endometrial, read-out: Mean IC50. The method, then: as §1, §2
Assay [13] deals with JIM1 cells. The following applies: JIM1, HMCL; read-out: Mean IC50. How it is done: as §1, §2
The test system of assay [14] is KMM-1 cells. To be noted: KMM-1, HMCL-A; read-out: Mean IC50. How it is done: as §1, §2
Assay [15] has as its system KMS-34 cells. To be noted: KMS-34, HMCL-B; read-out: Mean IC50. The method, then:
as §1, §2

The subject of assay [16] is L363 cells. The following applies: L363, PCL/MM; read-out: Mean IC50. The method, then: as §1, §2
For assay [17], the system named is MDA-MB-231 cells. To be noted: MDA-MB-231, TNBC; read-out: Mean IC50. How it is done: as §1, §2
Assay [18] concerns MDA-MB-468 cells. To be noted: MDA-MB-468, TNBC; read-out: Mean IC50. The method, then:
as §1, §2

For assay [19], the system named is MIA PaCa-2 cells. The following applies: MIA PaCa-2, Pancreatic; read-out: Mean IC50. How it is done: as §1, §2
In assay [20] the test system is MOLP-8 cells. To be noted: MOLP-8, MM IgD; read-out: Mean IC50. The method, then:
as §1, §2

For assay [21], the system named is OCI-LY3 cells. The following applies: OCI-LY3, ABC-DLBCL; read-out: Mean IC50. How it is done: as §1, §2
For assay [22], the system named is SiHA cells. The following applies: Cervical - SC, read-out: Mean IC50. The method, then:
as §1, §2

For assay [23], the system named is RPMI-8226 cells. To be noted: RPMI-8226, HMM. How it is done:
as §2
In this example, different cell lines were subjected to in vitro cell proliferation assays as described in Example 8. In particular, the cell lines are identified in the following Table 17, and the tissue types were: Pancreatic; Endometrial; Triple-Negative Breast Cancer (TNBC); Non-Small-Cell Lung Carcinoma (NSCLC); Ovarian; Renal Cell Carcinoma (RCC); Cervical-Squamous Cell; […] (H&N-Squamous Cell); Germinal Center B Cell-Like Novo Diffuse Large B-Cell Lymphoma (GCB-DLBCL); Activated B-Cell—Diffuse Large B Cell Lymphoma (ABC-DLBCL); Human Myeloma; Human Myeloma Cell Line Lymphocyte-Like; Human Myeloma Cell Line Lymphocyte-Like Myeloma Pleural Effusion Infiltration; Human Multiple Myeloma; Plasma Cell Leukemia/Multiple Myeloma Epstein-Barr Nuclear Antigen-Negative (EBNA-Negative) and to Express mRNA for Proto-Oncogene B-Cell Lymphoma 2 (BCL2); Multiple Myeloma from Peripheral Blood Type IgD Lmabda.

SMILES strings stand for the structures.

A word on the IC50: it is the concentration at which inhibition is half-maximal. On to `COc1ccc2c3c([nH]c2c1)C(CC(CC1=NCCc2c1[nH]c1cc(OC)ccc21)c1ccc(F)c(Oc2ccccc2)c1)=NCC3` [compound 19], for which the IC50 in [1] was determined as 22.1 µM; in assay [2], 27.5 µM; in [3] it was 89.5 µM; in assay [4], 22.8 µM; in assay [5], 45.5 µM; in assay [6], 36.2 µM. Moreover, the IC50 in assay [7] was found to be 10.2 µM; in assay [8] it was 44.4 µM; in assay [9], 56.8 µM; in assay [10] it was 55 µM; in [11] it was 50.9 µM; in [12], 45 µM. In addition, the IC50 in [13] is 42.9 µM; in assay [14] it was 25.6 µM; in [15], 31.2 µM; in assay [16], 36.8 µM; in assay [17] it was 41.8 µM; in [18], 48.9 µM. Besides, the IC50 in [19] came out at 36.6 µM; in assay [20] it was 9.81 µM; in assay [21], 20.6 µM; in [22] it was 75.9 µM; in [23] it was 10.6 µM.
For `COc1cccc(C(CC2=NCCc3c2[nH]c2cc(OC)ccc32)CC2=NCCc3c2[nH]c2cc(OC)ccc32)c1` [compound 15], the concentration for half-maximal inhibition (IC50) in assay [1] was 8.45 µM; in assay [2], 7.63 µM; in assay [3], 15.2 µM; in assay [4], 3.45 µM; in assay [5] it was 5.45 µM; in [6], 4.22 µM. Also, the IC50 in assay [7] is 5.05 µM; in assay [8], 6.62 µM; in assay [9], 9.6 µM; in assay [10], 12.1 µM; in assay [11], 11.7 µM; in [12] it was 13.1 µM. In addition, the IC50 in [13] worked out at 6.26 µM; in [14] it was 7.36 µM; in assay [15] it was 3.5 µM; in assay [16], 6.58 µM; in assay [17], 6.77 µM; in assay [18], 6.7 µM. Further, the 50% inhibitory concentration (IC50) was determined as 3.63 µM in [19]; 3.19 µM in [20]; 6.32 µM in assay [21]; 12.3 µM in assay [22]; 2.95 µM in [23].
Regarding `COc1ccc2c3c([nH]c2c1)C(CC(CC1=NCCc2c1[nH]c1cc(OC)ccc21)c1ccc(OC)c(O)c1I)=NCC3` [compound 14], the IC50 in [1] was 21.2 µM; in assay [2] it was 24.3 µM; in assay [3], 54.7 µM; in [4] it was 9.05 µM; in assay [5], 53.1 µM; in [6] it was 21 µM. Moreover, the IC50 in assay [7] was 7.9 µM; in assay [8], 19.2 µM; in [9], 25.4 µM; in [10], 33.6 µM; in assay [11], 33.3 µM; in assay [12], 28.7 µM. The IC50 in assay [13] amounted to 17.9 µM; in assay [14] it was 23.9 µM; in assay [15] it was 14.6 µM; in [16] it was 23.4 µM; in [17], 32.4 µM; in assay [18], 16.9 µM. Also, the IC50 was 22.2 µM in assay [19]; 10.1 µM in assay [20]; 15.4 µM in [21]; 51.9 µM in assay [22]; 7.53 µM in assay [23].
Consider `COc1ccc2c3c([nH]c2c1)C(CC(CC1=NCCc2c1[nH]c1cc(OC)ccc21)c1ccc(F)cc1)=NCC3` [compound 21], for which the IC50 in assay [1] stood at 7.51 µM; in assay [2], 9.87 µM; in assay [3], 11.7 µM; in assay [4] it was 3.93 µM; in [5] it was 5.11 µM; in assay [6], 3.58 µM. Also, the IC50 in assay [7] stood at 3.61 µM; in assay [8], 6.26 µM; in assay [9] it was 8.22 µM; in assay [10], 11.4 µM; in [11], 10.9 µM; in [12], 11.7 µM. Also, the IC50 in assay [13] amounted to 5.55 µM; in assay [14], 6.41 µM; in [15], 3.82 µM; in assay [16], 5.15 µM; in assay [17], 5.95 µM; in assay [18] it was 6.74 µM. In addition, the 50% inhibitory concentration (IC50) in [19] was 4.41 µM; in assay [20], 3.69 µM; in assay [21] it was 4.94 µM; in assay [22], 11.5 µM; in [23] it was 3.56 µM.
In the case of `COc1ccc2c3c([nH]c2c1)C(CC(CC1=NCCc2c1[nH]c1cc(OC)ccc21)c1cc(O)c(OC)c(OC)c1)=NCC3` [compound 11], the IC50 in [1] turned out to be 18.3 µM; in assay [2], 24.9 µM; in [3], 51.3 µM; in assay [4], 8.74 µM; in assay [5], 21.9 µM; in [6], 11.5 µM. Besides, the IC50 in assay [7] amounted to 4.32 µM; in assay [8] it was 16.4 µM; in [9] it was 26.2 µM; in assay [10], 19.5 µM; in assay [11], 27.2 µM; in assay [12], 36.3 µM. Also, the IC50 turned out to be 11.5 µM in assay [13]; 12.1 µM in assay [14]; 11.1 µM in [15]; 11.6 µM in assay [16]; 13.5 µM in assay [17]; 12.2 µM in [18]. Besides, the IC50 came out at 11.7 µM in assay [19]; 10.8 µM in assay [20]; 11.3 µM in [21]; 15.9 µM in [22]; 10.1 µM in assay [23].
Consider `COc1ccc2c3c([nH]c2c1)C(CC(CC1=NCCc2c1[nH]c1cc(OC)ccc21)c1ccc(OC)c(OC)c1)=NCC3` [compound 4], for which the 50% inhibitory concentration (IC50) in assay [1] came to 11.5 µM; in assay [2], 10.8 µM; in assay [3], 12.7 µM; in assay [4] it was 5.1 µM; in assay [5], 11 µM; in assay [6], 6.05 µM. In addition, the IC50 in assay [7] was determined as 3.17 µM; in assay [8] it was 7.69 µM; in [9] it was 13.6 µM; in assay [10] it was 14.1 µM; in assay [11] it was 11.6 µM; in assay [12], 16.3 µM. Further, the half-maximal inhibitory concentration (IC50) was 6.89 µM in assay [13]; 6.32 µM in assay [14]; 4.75 µM in assay [15]; 6.38 µM in assay [16]; 12 µM in assay [17]; 6.27 µM in [18]. The concentration for half-maximal inhibition (IC50) in [19] turned out to be 4.37 µM; in [20], 5.03 µM; in assay [21], 5.57 µM; in assay [22], 17.1 µM; in assay [23], 4.09 µM.

The record behind these values is patent US12129265B2, “Therapeutic agents and uses thereof” (Ankh Life Sciences Limited, priority 2020, dated 2024).
